The source of these data is US9850225B2, “Compounds useful as immunomodulators” (BRISTOL-MYERS SQUIBB COMPANY, priority 2014, dated 2017).

The term IC50 denotes the concentration that gives 50% inhibition.

For the test, the target named is PD-1/PD-L1 interaction (PD-1-Ig / PD-L1-His) (Homo sapiens (Human), UniProt Q9NZQ7). Put plainly: PD-1/PD-L1 Homogenous Time-Resolved Fluorescence (HTRF) binding assay. Conditions: PD-1/PD-L1 HTRF binding assay, read-out: Range or IC50. The procedure, abridged:
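HTRF detection used 1 nM europium-cryptate anti-Ig and 20 nM APC anti-His. Compounds first saw 10 nM PD-L1-His for 15 min, and 20 nM PD-1-Ig was then added for another 15 min. Buffer was dPBS plus 0.1% BSA and 0.05% Tween-20. All concentrations are final.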
Background: TR-FRET usually uses a lanthanide donor and a delayed reading to cut background.

Like-named read-outs stand apart in the source and are kept apart here.

PD-1/PD-L1 interaction (PD-1-Ig / PD-L1-His), sequence (Q9NZQ7 other isoform, or with tags, fused parts or gaps): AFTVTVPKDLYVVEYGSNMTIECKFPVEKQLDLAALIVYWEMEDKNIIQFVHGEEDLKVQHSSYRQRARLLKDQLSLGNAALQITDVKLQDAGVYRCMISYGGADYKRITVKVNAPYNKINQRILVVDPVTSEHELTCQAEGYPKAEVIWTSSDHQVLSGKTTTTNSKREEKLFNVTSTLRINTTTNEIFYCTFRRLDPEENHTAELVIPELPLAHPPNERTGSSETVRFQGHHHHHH

`Cc1c(COc2cc(OCc3cccc(C#N)c3)c(CNCc3nnn[nH]3)cc2Cl)cccc1-c1ccc2c(c1)OCCO2` [Example 1229, 3-((2-((((1H-tetrazol-5-yl)methyl)amino)methyl)-4-chloro-5-((3-(2,3-dihydrobenzo[b][1,4]dioxin-6-yl)-2-methylbenzyl)oxy)phenoxy)methyl)benzonitrile]: the IC50 (value given as range class) lay in the range of 0.6 to 10 nM.
The same measure, in the same setting: the same measure for `Cc1c(COc2cc(OCc3cccc(C#N)c3)c(CNC(C)(C)CN3CCN(C)CC3)cc2Cl)cccc1-c1ccc2c(c1)OCCO2` [Example 1223, 3-((4-chloro-5-((3-(2,3-dihydrobenzo[b][1,4]dioxin-6-yl)-2-methylbenzyl)oxy)-2-(((2-methyl-1-(4-methylpiperazin-1-yl)propan-2-yl)amino)methyl)phenoxy)methyl)benzonitrile]: 0.6 to 10 nM; for `Cc1c(COc2cc(OCc3cccc(C#N)c3)c(CNCC(O)CN3CCOCC3)cc2Cl)cccc1-c1ccc2c(c1)OCCO2` (stereo not shown) [Example 1212, 3-((4-chloro-5-((3-(2,3-dihydrobenzo[b][1,4]dioxin-6-yl)-2-methylbenzyl)oxy)-2-(((2-hydroxy-3-morpholinopropyl)amino)methyl)phenoxy)methyl)benzonitrile]: 0.6 to 10 nM.
Still for that read-out and setting: the same measure for `Cc1cc(CNC[C@@H](O)CC(=O)O)c(OCc2cccnc2)cc1OCc1cccc(-c2ccc3c(c2)OCCO3)c1C` [Example 1278, (S)-4-((4-((3-(2,3-dihydrobenzo[b][1,4]dioxin-6-yl)-2-methylbenzyl)oxy)-5-methyl-2-(pyridin-3-ylmethoxy)benzyl)amino)-3-hydroxybutanoic acid]: 0.6 to 10 nM.
Same read-out and setting: as for `Cc1c(COc2cc(OCc3cccc(C#N)c3)c(CN[C@@](C)(CO)C(=O)O)cc2Br)cccc1-c1ccc2c(c1)OCCO2` [Example 1304, (S)-2-((5-bromo-2-((3-cyanobenzyl)oxy)-4-((3-(2,3-dihydrobenzo[b][1,4]dioxin-6-yl)-2-methylbenzyl)oxy)benzyl)amino)-3-hydroxy-2-methylpropanoic acid], the figure is 0.6 to 10 nM.
For `Cc1c(COc2cc(OCc3cncc(C#N)c3)c(CN[C@](C)(CO)C(=O)O)cc2Br)cccc1-c1ccc2c(c1)OCCO2` [Example 1320, (R)-2-(5-bromo-2-((5-cyanopyridin-3-yl)methoxy)-4-(3-(2,3-dihydrobenzo[b][1,4]dioxin-6-yl)-2-methylbenzyloxy)benzylamino)-3-hydroxy-2-methylpropanoic acid], the IC50 (value given as range class) was in the range of 0.6 to 10 nM.
Turning to `Cc1c(COc2cc(OCc3cccc(C#N)c3)c(CNC(C(=O)O)C(C)(C)O)cc2Cl)cccc1-c1ccc2c(c1)OCCO2` (stereo not shown) [Example 1210, 2-((5-chloro-2-((3-cyanobenzyl)oxy)-4-((3-(2,3-dihydrobenzo[b][1,4]dioxin-6-yl)-2-methylbenzyl)oxy)benzyl)amino)-3-hydroxy-3-methylbutanoic acid], for the setting “numeric value”, the IC50 was determined as 12.7 nM.
Regarding `Cc1c(COc2cc(OCc3cncc(C#N)c3)c(CNC[C@@H](O)CC(=O)O)cc2Br)cccc1-c1ccc2c(c1)OCCO2` [Example 1316, (S)-4-(5-bromo-2-((5-cyanopyridin-3-yl)methoxy)-4-(3-(2,3-dihydrobenzo[b][1,4]dioxin-6-yl)-2-methylbenzyloxy)benzylamino)-3-hydroxybutanoic acid], the IC50 (value given as range class) fell in the range of 0.6 to 10 nM.
As for `Cc1cc(CN[C@@](C)(CO)C(=O)O)c(OCc2ccc(F)c(C#N)c2)cc1OCc1cccc(-c2ccc3c(c2)OCCO3)c1C` [Example 1275, (S)-2-((2-((3-cyano-4-fluorobenzyl)oxy)-4-((3-(2,3-dihydrobenzo[b][1,4]dioxin-6-yl)-2-methylbenzyl)oxy)-5-methylbenzyl)amino)-3-hydroxy-2-methylpropanoic acid], under “value given as range class”, the IC50 was 0.6 to 10 nM.
Turning to `Cc1c(COc2cc(OCc3cccc(C#N)c3)c(CN[C@@H](C(=O)O)[C@H](C)O)cc2Cl)cccc1-c1ccc2c(c1)OCCO2` [Example 1195, (2R,3S)-2-((5-chloro-2-((3-cyanobenzyl)oxy)-4-((3-(2,3-dihydrobenzo[b][1,4]dioxin-6-yl)-2-methylbenzyl)oxy)benzyl)amino)-3-hydroxybutanoic acid], the IC50 (value given as range class) lay in the range of 0.6 to 10 nM.
